# Measurements reported in patent publication US8168592B2 (Amgen Inc., priority 2005, dated 2012).
# Bridge positions count the residues as written; N and C are the ends. Square brackets hold non-standard residues; d marks the D form. Peptide text beside a SMILES is read from it. Oic = O=C(O)[C@@H]1C[C@@H]2CCCC[C@@H]2N1; hArg = N=C(N)NCCCC[C@H](N)C(=O)O; Cit = NC(=O)NCCC[C@H](N)C(=O)O
# Target: T1, CGRP1 receptor (Homo sapiens, UniProt O60894+Q16602)
# T1 construct: SK-N-MC cells express CRLR and RAMP1, which form CGRP1 receptor; endogenous in cells; host or cells: SK-N-MC human neuroblastoma cells
# Assay: in vitro CGRP1 receptor mediated cAMP assay in SK-N-MC cells
# Type: cell-based
# Conditions: IC50, Table 2A
# Experimental: The in vitro cAMP assay employed a human neuroblastoma-derived cell line (SK-N-MC). SK-N-MC cells express CRLR and RAMP1, which form CGRP1 receptor. CGRP1 receptor is a G-protein coupled receptor linked to the stimulatory G-protein, Gs. […] Briefly, two days before the assay, the cells were plated in 96-well plates in growth medium. On the day of the assay cells were rinsed with PBS followed by the addition of 60 μl of plasma free medium for 15 minutes at room temperature. […] The medium was then removed and the cells were lysed with 100 μl lysis buffer for 30 minutes at 37° C. for 30 minutes. Using a Tropix ELISA kit (Applied Biosystems, Foster City, Calif.), a cAMP-AP conjugate was diluted (1:100) and added (30 μl) to each well of a 96-well ELISA plate. An aliquot of the lysis buffer from the cell plate was then added to the ELISA plate followed by an aliquot of the cAMP antibody. This mixture was incubated for 1 hour at room temperature with gentle shaking. The ELISA plate was then washed 6× with wash buffer followed by the additions of a substrate enhancer. This mixture was incubated for 30 minutes at room temperature and then read on a MicroBeta Jet or EnVision plate reader. The results were analyzed using Prism (GraphPad).
# T1 sequence (Q16602 23-461): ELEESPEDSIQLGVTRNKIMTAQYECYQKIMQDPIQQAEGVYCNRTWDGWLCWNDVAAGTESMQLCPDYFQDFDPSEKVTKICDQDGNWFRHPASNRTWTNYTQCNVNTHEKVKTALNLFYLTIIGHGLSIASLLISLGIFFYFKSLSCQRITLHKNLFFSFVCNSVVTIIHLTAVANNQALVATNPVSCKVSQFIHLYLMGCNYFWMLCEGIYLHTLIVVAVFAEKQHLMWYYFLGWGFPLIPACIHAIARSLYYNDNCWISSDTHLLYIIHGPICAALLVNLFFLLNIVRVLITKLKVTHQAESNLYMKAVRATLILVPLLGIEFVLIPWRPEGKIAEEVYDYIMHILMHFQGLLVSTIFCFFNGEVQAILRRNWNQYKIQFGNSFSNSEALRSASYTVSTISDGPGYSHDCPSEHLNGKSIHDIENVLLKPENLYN
# T1 sequence (O60894 27-148): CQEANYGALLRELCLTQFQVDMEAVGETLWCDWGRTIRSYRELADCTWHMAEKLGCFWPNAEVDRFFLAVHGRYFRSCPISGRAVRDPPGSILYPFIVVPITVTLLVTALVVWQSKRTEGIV
row,Compound,IC50 [nM]
1,CC(=O)N[C@@H](Cc1c[nH]c2ccccc12)C(=O)N[C@H](C(=O)N[C@H]1CCC(=O)NCCCC[C@@H](C(=O)NCC(=O)N[C@@H](CC(C)C)C(=O)N[C@@H](CC(C)C)C(=O)N[C@@H](CO)C(=O)N[C@@H](CCCNC(N)=O)C(=O)N[C@@H](CO)C(=O)NCC(=O)NCC(=O)N[C@H](C(=O)N[C@H](C(=O)N[C@@H](CCCCNC(=N)N)C(=O)N[C@@H](CCCCN)C(=O)N[C@@H](CC(N)=O)C(=O)N[C@@H](Cc2ccccc2)C(=O)N[C@H](C(=O)N2CCC[C@H]2C(=O)N[C@H](C(=O)N[C@@H](CC(=O)O)C(=O)N[C@H](C(=O)NCC(=O)N2CCC[C@H]2C(=O)N[C@@H](Cc2ccccc2)C(=O)N[C@@H](C)C(=O)N[C@@H](Cc2ccccc2)C(N)=O)C(C)C)[C@@H](C)O)C(C)C)C(C)C)C(C)C)NC(=O)[C@H](CC(C)C)NC(=O)[C@H](CCCNC(=N)N)NC(=O)[C@H](Cc2c[nH]cn2)NC1=O)C(C)C [compound 663] (Ac-WVEHRLKGLLS[Cit]SGGVV[hArg]KNFVPTDVGPFAF-NH2; lactam 3-7),1.22 to 2.06

# Same assay, conditions: Table 2A; read-out: IC50
row,IC50 [nM],Compound
1,2.29 to 2.95,CC(=O)N[C@@H](Cc1c[nH]c2ccccc12)C(=O)N[C@H](C(=O)N[C@H](C(=O)N[C@@H](Cc1c[nH]cn1)C(=O)N[C@@H](CCCNC(N)=O)C(=O)N[C@@H](CC(C)C)C(=O)N[C@@H](C)C(=O)NCC(=O)N[C@@H](CC(C)C)C(=O)N[C@@H](CC(C)C)C(=O)N[C@@H](CO)C(=O)N[C@@H](CCCNC(N)=O)C(=O)N[C@@H](CO)C(=O)NCC(=O)NCC(=O)N[C@H](C(=O)N[C@H](C(=O)N[C@@H](Cc1ccc(NC(=N)N)cc1)C(=O)N[C@@H](CCCCN)C(=O)N[C@@H](CC(N)=O)C(=O)N[C@@H](Cc1ccccc1)C(=O)N[C@H](C(=O)N1CCC[C@H]1C(=O)N[C@H](C(=O)N[C@@H](CC(=O)O)C(=O)N[C@H](C(=O)NCC(=O)N1[C@H](C(=O)N[C@@H](Cc2ccccc2)C(=O)N[C@@H](C)C(=O)N[C@@H](Cc2ccccc2)C(N)=O)C[C@@H]2CCCC[C@@H]21)C(C)C)[C@@H](C)O)C(C)C)C(C)C)C(C)C)[C@@H](C)O)C(C)C [compound 664]
2,33.2 to 262,CC(=O)N[C@@H](Cc1c[nH]c2ccccc12)C(=O)N[C@H](C(=O)N[C@H](C(=O)N[C@@H](Cc1c[nH]cn1)C(=O)N[C@@H](CCCNC(N)=O)C(=O)N[C@@H](CC(C)C)C(=O)N[C@@H](C)C(=O)NCC(=O)N[C@@H](CC(C)C)C(=O)N[C@@H](CC(C)C)C(=O)N[C@@H](CO)C(=O)N[C@@H](CCCNC(N)=O)C(=O)N[C@@H](CO)C(=O)NCC(=O)NCC(=O)N[C@H](C(=O)N[C@H](C(=O)N[C@@H](CCCCNC(=N)N)C(=O)N[C@@H](CCCCN)C(=O)N[C@@H](CC(N)=O)C(=O)N[C@@H](Cc1ccccc1)C(=O)N[C@H](C(=O)N1CCC[C@H]1C(=O)N[C@H](C(=O)N[C@@H](CC(=O)O)C(=O)N[C@H](C(=O)NCC(=O)NC1(C(=O)N[C@@H](Cc2ccccc2)C(=O)N[C@@H](C)C(=O)N[C@@H](Cc2ccccc2)C(N)=O)Cc2ccccc2C1)C(C)C)[C@@H](C)O)C(C)C)C(C)C)C(C)C)[C@@H](C)O)C(C)C [compound 669]
3,2.15,CC(=O)N[C@@H](Cc1c[nH]c2ccccc12)C(=O)N[C@H](C(=O)N[C@H](C(=O)N[C@@H](Cc1cnc[nH]1)C(=O)N[C@@H](CCCNC(N)=O)C(=O)N[C@@H](CC(C)C)C(=O)N[C@@H](C)C(=O)NCC(=O)N[C@@H](CC(C)C)C(=O)N[C@@H](CC(C)C)C(=O)N[C@@H](CO)C(=O)N[C@@H](CCCNC(N)=O)C(=O)N[C@@H](CO)C(=O)NCC(=O)NCC(=O)N[C@H](C(=O)N[C@H](C(=O)N[C@@H](CCCCN=C(N)N)C(=O)N[C@@H](CCCCN)C(=O)N[C@@H](CC(N)=O)C(=O)N[C@@H](Cc1ccccc1)C(=O)N[C@H](C(=O)N1CCC[C@H]1C(=O)N[C@H](C(=O)N[C@@H](CC(=O)O)C(=O)N[C@H](C(=O)NCC(=O)N1CSC[C@H]1C(=O)N[C@@H](Cc1ccccc1)C(=O)N[C@@H](C)C(=O)N[C@@H](Cc1ccccc1)C(N)=O)C(C)C)[C@@H](C)O)C(C)C)C(C)C)C(C)C)[C@@H](C)O)C(C)C [compound 671]

# The remaining lines, values behind:
row,Compound,IC50 [nM]
1,CC(=O)N[C@@H](Cc1c[nH]c2ccccc12)C(=O)N[C@H](C(=O)N[C@H](C(=O)N[C@@H](Cc1c[nH]cn1)C(=O)N[C@@H](CCCNC(N)=O)C(=O)N[C@@H](CC(C)C)C(=O)N[C@@H](C)C(=O)NCC(=O)N[C@@H](CC(C)C)C(=O)N[C@@H](CC(C)C)C(=O)N[C@@H](CO)C(=O)N[C@@H](CCCNC(N)=O)C(=O)N[C@@H](CO)C(=O)NCC(=O)NCC(=O)N[C@H](C(=O)N[C@H](C(=O)N[C@@H](CCCCNC(=N)N)C(=O)N[C@@H](CCCCN)C(=O)N[C@@H](CC(N)=O)C(=O)N[C@@H](Cc1ccccc1)C(=O)N[C@H](C(=O)N1CCC[C@H]1C(=O)N[C@H](C(=O)N[C@@H](CC(=O)O)C(=O)N[C@H](C(=O)NCC(=O)N1CCC[C@H]1C(=O)N[C@@H](Cc1ccccc1)C(N)=O)C(C)C)[C@@H](C)O)C(C)C)C(C)C)C(C)C)[C@@H](C)O)C(C)C [compound 655] (Ac-WVTH[Cit]LAGLLS[Cit]SGGVV[hArg]KNFVPTDVGPF-NH2),> 1000
2,CC(=O)N[C@@H](Cc1c[nH]c2ccccc12)C(=O)N[C@H](C(=O)N[C@H](C(=O)N[C@@H](Cc1c[nH]cn1)C(=O)N[C@@H](CCCNC(N)=O)C(=O)N[C@@H](CC(C)C)C(=O)N[C@@H](C)C(=O)NCC(=O)N[C@@H](CC(C)C)C(=O)N[C@@H](CC(C)C)C(=O)N[C@@H](CO)C(=O)N[C@@H](CCCNC(N)=O)C(=O)N[C@@H](CO)C(=O)NCC(=O)NCC(=O)N[C@H](C(=O)N[C@H](C(=O)N[C@@H](CCCCNC(=N)N)C(=O)N[C@@H](CCCCN)C(=O)N[C@@H](CC(N)=O)C(=O)N[C@@H](Cc1ccccc1)C(=O)N[C@H](C(=O)N1CCC[C@H]1C(=O)N[C@H](C(=O)N[C@@H](CC(=O)O)C(=O)N[C@H](C(=O)NCC(=O)N1CCC[C@H]1C(N)=O)C(C)C)[C@@H](C)O)C(C)C)C(C)C)C(C)C)[C@@H](C)O)C(C)C [compound 656] (Ac-WVTH[Cit]LAGLLS[Cit]SGGVV[hArg]KNFVPTDVGP-NH2),> 1000
3,CC(=O)N[C@@H](CCCNC(N)=O)C(=O)N[C@@H](CC(C)C)C(=O)N[C@@H](C)C(=O)NCC(=O)N[C@@H](CC(C)C)C(=O)N[C@@H](CC(C)C)C(=O)N[C@@H](CO)C(=O)N[C@@H](CCCNC(N)=O)C(=O)N[C@@H](CO)C(=O)NCC(=O)NCC(=O)N[C@H](C(=O)N[C@H](C(=O)N[C@@H](CCCCNC(=N)N)C(=O)N[C@@H](CCCCN)C(=O)N[C@@H](CC(N)=O)C(=O)N[C@@H](Cc1ccccc1)C(=O)N[C@H](C(=O)N1CCC[C@H]1C(=O)N[C@H](C(=O)N[C@@H](CC(=O)O)C(=O)N[C@H](C(=O)NCC(=O)N1CCC[C@H]1C(=O)N[C@@H](Cc1ccccc1)C(=O)N[C@@H](C)C(=O)N[C@@H](Cc1ccccc1)C(N)=O)C(C)C)[C@@H](C)O)C(C)C)C(C)C)C(C)C [compound 657] (Ac-[Cit]LAGLLS[Cit]SGGVV[hArg]KNFVPTDVGPFAF-NH2),13
4,CC(=O)N[C@@H](Cc1c[nH]c2ccccc12)C(=O)N[C@H](C(=O)N[C@H](C(=O)N[C@@H](Cc1c[nH]cn1)C(=O)N[C@@H](CCCNC(N)=O)C(=O)N[C@@H](CC(C)C)C(=O)N[C@@H](C)C(=O)NCC(=O)N[C@@H](CC(C)C)C(=O)N[C@@H](CC(C)C)C(=O)N[C@@H](CO)C(=O)N[C@@H](CCCNC(N)=O)C(=O)N[C@@H](CO)C(=O)NCC(=O)NCC(=O)N[C@H](C(=O)N[C@H](C(=O)N[C@@H](CCCCNC(=N)N)C(=O)N[C@@H](CCCCN)C(=O)N[C@@H](CC(N)=O)C(=O)N[C@@H](Cc1ccccc1)C(=O)N[C@H](C(=O)N1CCC[C@H]1C(=O)N[C@H](C(=O)N[C@@H](CC(=O)O)C(=O)N[C@H](C(=O)NCC(=O)N1[C@H](C(=O)N[C@@H](Cc2ccccc2)C(=O)N[C@@H](C)C(N)=O)C[C@@H]2CCCC[C@@H]21)C(C)C)[C@@H](C)O)C(C)C)C(C)C)C(C)C)[C@@H](C)O)C(C)C [compound 659] (Ac-WVTH[Cit]LAGLLS[Cit]SGGVV[hArg]KNFVPTDVG[Oic]FA-NH2),> 1000
5,CC(=O)N[C@H](C(=O)N[C@H](C(=O)N[C@@H](Cc1c[nH]cn1)C(=O)N[C@@H](CCCNC(N)=O)C(=O)N[C@@H](CC(C)C)C(=O)N[C@@H](C)C(=O)NCC(=O)N[C@@H](CC(C)C)C(=O)N[C@@H](CC(C)C)C(=O)N[C@@H](CO)C(=O)N[C@@H](CCCNC(N)=O)C(=O)N[C@@H](CO)C(=O)NCC(=O)NCC(=O)N[C@H](C(=O)N[C@H](C(=O)N[C@@H](CCCCNC(=N)N)C(=O)N[C@@H](CCCCN)C(=O)N[C@@H](CC(N)=O)C(=O)N[C@@H](Cc1ccccc1)C(=O)N[C@H](C(=O)N1CCC[C@H]1C(=O)N[C@H](C(=O)N[C@@H](CC(=O)O)C(=O)N[C@H](C(=O)NCC(=O)N1[C@H](C(=O)N[C@@H](Cc2ccccc2)C(=O)N[C@@H](C)C(=O)N[C@@H](Cc2ccccc2)C(N)=O)C[C@@H]2CCCC[C@@H]21)C(C)C)[C@@H](C)O)C(C)C)C(C)C)C(C)C)[C@@H](C)O)C(C)C [compound 660] (Ac-VTH[Cit]LAGLLS[Cit]SGGVV[hArg]KNFVPTDVG[Oic]FAF-NH2),3
